Experimental data published in patent US10030103B2, “Stable helical ionic polypeptides” (The Board of Trustees of the University of Illinois, priority 2010, dated 2018).

Key:
[1] = Circular dichroism (CD) analysis of polypeptide conformation in aqueous solution; type: physicochemical
Method: CD measurements were carried out on a JASCO J-700 CD spectrometer in a quartz disc with a light path length of 1 cm at 0.01-0.1 mg/mL in DI water at room temperature or under conditions otherwise indicated.
The CD study was performed on a JASCO J-700 or on a J-720 CD spectrometer. Polymer samples were prepared at concentrations of 0.01-0.1 mg/mL at pH 3 unless otherwise specified. The solution was placed in a quartz cell with light path of 0.2 cm. The mean residue molar ellipticity of each polymer was calculated based on the measured apparent ellipticity, the molar concentration of polymer and the m.w. of the repeating unit. The CD experiments were carried out at room temperature unless otherwise specified. For temperature-dependency study, the temperature of the sample chamber which hosts the quartz cell was controlled by a water bath (from 4° C. to 70° C.).
The samples were equilibrated at corresponding temperature for at least 10 min before the CD measurements. For the sample preparations, the polymers were dissolved in DI water or in a solution containing NaCl, urea or methanesulfonic acid (MSA). For the pH-dependency study, the pH of the polymer solution was tuned by the addition of a concentrated HCl or NaOH solution.
The CD study was performed on a JASCO J-700 and J-720 CD spectrometer. Polymer samples were prepared at a concentration of 0.05 mg/mL in general unless otherwise specified. The solution was placed in a quartz disc with light path of 0.5 cm. Mean residue molar ellipticity was calculated based on the ellipticity obtained, concentration of polymer and the molar weight of the repeating unit.
The CD study was performed on a JASCO J-700 and J-720 CD spectrometer. The polymer samples were prepared at concentrations of 0.01-0.1 mg/mL in general unless otherwise specified. The solution was placed in a quartz cell with a path length of 0.5 cm. […] For the helix-temperature dependency study, the temperature of the sample chamber where the quartz cell was placed was controlled by a water bath (from 4° C. to 70° C.). […]

COS-7 cells = test: In vitro transfection of COS-7 cells with polymer/DNA complexes (pCMV-Luc, luciferase expression); type: cell-based; details: listed as PVBLG40-1
Method: DNA/polymer complexes were prepared at room temperature by dissolving DNA (0.35 μg) in 150 mM NaCl, 20 mM HEPES (175 μL). An equal volume of 25-kDa branched PEI, lipofectamine 2000 or PVBLGn-X in 150 mM NaCl, 20 mM HEPES was added to achieve the desired weight ratio. The final complexes were incubated at room temperature for 15 min before further use. […] The transfection medium was replaced with fresh serum-supplemented growth medium 4 h post-transfection.
Luciferase expression was quantified 24 h post-transfection using the Promega Bright-Glo luciferase assay system (Promega, Madison, Wis.). Luciferase activity was measured in relative light units (RLU) using a PerkinElmer plate reader with luminescence capabilities (Waltham, Mass.). Results were normalized to total cell protein using the Pierce BCA protein assay kit (Rockford, Ill.). Transfections were performed in triplicate.

DHSα E. coli = test: Inhibition of bacterial growth in Luria broth (OD650); type: cell-based; details: up to 100 μg/mL, seven hours, 37° C.
Method: Luria broth (1×) was prepared containing known concentrations of the three polymers between 0 μg/mL and 100 μg/mL and dispensed (200 μL aliquots) in triplicate into the wells of a clear polystyrene 96-well plate. Separate wells containing the antibiotic kanamycin at 50 μg/mL were also prepared as a control. The wells were then inoculated with DHSα E. coli and left to grow at 37° C. with agitation. After seven hours, the plate was removed and the absorbance of 650 nm light was measured for each well (OD650). In general, as bacterial growth was inhibited, the resulting OD650 decreased. The average OD650 was then plotted for each sample (FIG. 50).

## Poly(γ-(4-aminoethylthiopropoxyl)-benzyl-L-glutamate) [(PAOBLG-AET)10]
[1]; pH range as stated in the value
  pH dependence of −[θ]222 / helical conformation: remained unchanged when the solution's pH was increased from 1 to 8

## poly(L-lysine) [PLL75]
[1]; aqueous solution, pH 1
  conformation by CD: completely random coil conformation

## poly(γ-(4-(1-hexanol-6-aminomethyl))benzyl-L-glutamate) [(PVBLG-1)40]
COS-7 cells
  transfection efficiency: on par with 25-kDa branched polyethylenimine (PEI)

## poly(γ-(4-(1-hexanol-6-aminomethyl))benzyl-L-glutamate) [PVBLG-1]
DHSα E. coli
  antimicrobial properties: Neither PVBLGn-1 nor PVBLGn-8 displayed antimicrobial properties

## poly-L-lysine [(PLL)60]
[1]; Table 9-2, (−[θ]222 + 3000)/39,000
  Helical content: 0%
